Results: PubChem BioAssay AID463203 (Broad Institute, 2010)
The source made the active and inactive calls.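 The calls were made as follows: active = more than half of replicate measurements showing over 20% loss of kinase signal relative to plate controls; inconclusive = some but at most half of replicates over 20% loss; inactive = no replicate over 20% signal loss.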

biological target: Glycogen synthase kinase-3 alpha (Homo sapiens) (UniProt P49840); test: concentration-response blocking of human GSK3A – biochemical, luminescence, cell-free homogeneous, retest, dose response (AID 463203); conditions: GSK-3 alpha enzyme, ADP-Glo luminescence, 60 min
Sequence (P49840 whole entry, looked up): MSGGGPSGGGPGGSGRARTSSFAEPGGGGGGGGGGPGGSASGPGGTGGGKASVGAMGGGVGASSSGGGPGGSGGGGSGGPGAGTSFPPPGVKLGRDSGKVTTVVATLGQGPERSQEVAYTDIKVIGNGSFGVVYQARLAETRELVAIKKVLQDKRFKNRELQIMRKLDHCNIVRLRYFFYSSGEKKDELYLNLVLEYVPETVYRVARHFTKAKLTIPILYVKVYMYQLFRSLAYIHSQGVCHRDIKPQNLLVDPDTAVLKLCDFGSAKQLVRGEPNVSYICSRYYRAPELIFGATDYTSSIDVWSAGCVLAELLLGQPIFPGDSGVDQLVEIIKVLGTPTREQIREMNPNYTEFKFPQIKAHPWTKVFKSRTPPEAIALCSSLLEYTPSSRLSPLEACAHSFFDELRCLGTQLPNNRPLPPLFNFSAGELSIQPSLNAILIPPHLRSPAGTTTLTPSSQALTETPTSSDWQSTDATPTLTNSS

Row | Compound | AC50
1 | N#Cc1cnn2c3c(cnc12)C(=O)N1CCc2ccccc2C1C3 (centres undefined) | > 30 µM (inactive)
2 | NC(=O)c1ccsc1NC(=O)COC(=O)Cc1ccsc1 | 28.6 µM
3 | Fc1ccc(-c2nnc3ccc(N4CCCC4)nn23)cc1 | 5.64 µM
4 | CC12CCC(C(=O)Nc3ncc([N+](=O)[O-])s3)(OC1=O)C2(C)C (centres undefined) | > 30 µM (inactive)
5 | COc1ccc(-n2c(SCC(N)=O)nnc2-c2ccco2)cc1 | > 30 µM (inactive)
6 | Cc1ccc(NC(=S)Nc2ccc3cn[nH]c3c2)c(C)c1 | > 30 µM (inactive)
7 | COc1ccccc1C(=O)O/N=C(\N)c1ccccn1 | > 30 µM (inactive)
8 | COc1cc(Br)c(C2C(C#N)=C(N)Oc3n[nH]c(-c4cccnc4)c32)cc1OC (centres undefined) | > 30 µM (inactive)
9 | Nc1cccc(C(=O)O)c1 | > 30 µM (inactive)
10 | N#C/C(=N\Nc1ccccc1)C(N)=S | > 30 µM (inactive)
11 | O=S(=O)(NCC1CCCO1)c1ccc(Cl)nc1 (centres undefined) | > 30 µM (inactive)
12 | COc1ccc(CC(=O)Nc2ccc(-c3cn4ccccc4n3)cc2)cc1OC | > 30 µM (inactive)
13 | CCCOc1ccc(-c2c(C(=O)N/N=C(\C)c3ccncc3)nnn2-c2nonc2N)cc1 | > 30 µM (inactive)
14 | Oc1ccc(-c2nnc(-c3ccccc3)c(-c3ccccc3)n2)cc1 | > 30 µM (inactive)
15 | COC(=O)CCCCCCCCC(O)CN(C)C (centres undefined) | > 30 µM (inactive)
16 | Oc1ccc(/C=N/Nc2nccnc2Cl)cc1 | 24.8 µM
17 | O=C(COc1ccccc1F)NC12CC3CC(CC(C3)C1)C2 | > 30 µM (inactive)
18 | O=C(CSc1nnc(SCc2ccccc2Cl)s1)N/N=C/c1ccc(C(=O)O)cc1 | 5.94 µM
19 | COc1ccc(-c2cc(C(=O)N3CCN(c4ccccc4)CC3)no2)cc1OC | > 30 µM (inactive)
20 | CCOC(=O)N1CC=C2C(C#N)=C(N)C(C#N)(C#N)[C@H](c3cccs3)[C@H]2C1 | 22.1 µM
21 | CC(C)c1c(C(=O)N/N=C/c2ccsc2)nnn1-c1nonc1N | > 30 µM (inactive)
22 | CC1(C)CC(=O)C2=C(C1)Nc1ccccc1[S@]2=O | > 30 µM (inactive)
23 | O=[N+]([O-])c1cc(S(=O)(=O)N2CCCCC2)ccc1NCCCN1CCOCC1 | > 30 µM (inactive)
24 | CNC(=O)NCC12CC3CC(CC(C3)C1)C2 | > 30 µM (inactive)
25 | O=C(Nc1ccsc1C(=O)O)c1ccccc1 | > 30 µM (inactive)
26 | CCOC(=O)CCc1c(C)c2ccc(O)cc2oc1=O | > 30 µM (inactive)
27 | CC(C)N=C(NC#N)SCc1ccc(Br)cc1 | > 30 µM (inactive)

Row | Compound | AC50
28 | COC(=O)[C@H]1[C@H](CCc2ccccc2)NC(=O)N(Cc2ccccc2)[C@@H]1C | > 30 µM (inactive)
29 | O=C(/C(=N/N=C/c1ccc(O)c(O)c1)c1ccccc1)c1ccccc1 | > 30 µM (inactive)
30 | COc1ccc(-c2c(C(C)=O)c(C)nc3sc4c(=O)[nH]nnc4c23)cc1 | 30.1 µM
31 | S=C(NCc1ccccc1)Nc1cccc2cnccc12 | > 30 µM (inactive)
32 | Cc1ccc(/C=C2\C(=O)Nc3ccccc32)o1 | 31.4 µM
33 | CC1=C(C(=O)OCc2ccc3c(c2)OCO3)C(c2ccc(F)cc2)NC(=O)N1 (centres undefined) | 20.3 µM
34 | COc1cc2c(C#N)c(N3CCCC3)nc(N)c2c(N)n1 | > 30 µM (inactive)
35 | COc1ccc(-c2cn3cccnc3n2)cc1NC(=O)C1CC1 | > 30 µM (inactive)
36 | CC(=O)C1C(c2ccc(C)cc2)c2c(n[nH]c2C)CC1(C)O (centres undefined) | > 30 µM (inactive)
37 | CN1CCN(c2ccccc2NC(=O)c2ccc(-c3ccccc3[N+](=O)[O-])o2)CC1 | 4.6 µM
38 | Fc1ccc(Nc2ncnc3sccc23)cc1 | > 30 µM (inactive)
39 | CN(C)C(=O)Oc1cccc2c(OC(=O)N(C)C)cccc12 | > 30 µM (inactive)
40 | Cc1nc2sc(C(N)=O)c(N)c2c2c1CCCC2 | 28 µM
41 | Nc1c(C(=O)Nc2ccc3c(c2)OCCO3)nnn1Cc1ccccc1Cl | > 30 µM (inactive)
42 | C=CCc1cc(/C=N/n2cnnc2)cc(OCC)c1O | > 30 µM (inactive)
43 | O=C(CN1CCOCC1)Nc1cccc(Br)c1 | > 30 µM (inactive)
44 | N#CC1=C(SCC(=O)c2ccccc2)NC2=C(C(=O)CCC2)C1c1ccco1 (centres undefined) | > 30 µM (inactive)
45 | N#CCCN(Cc1ccccc1)S(=O)(=O)c1cccs1 | > 30 µM (inactive)
46 | Cc1cccc(C)c1NC(=O)COC(=O)Cc1ccsc1 | > 30 µM (inactive)
47 | CCOc1ccc2ccccc2c1/C=N/n1cncn1 | > 30 µM (inactive)
48 | Cc1ccc(-n2cnc(N)c2C(=O)c2cccc([N+](=O)[O-])c2)cc1 | 10.8 µM
49 | Cc1cc(C)nc(NC(=O)/C=C/c2cccs2)c1 | > 30 µM (inactive)
50 | Cc1ccccc1CNC(=O)c1cc(COc2ccc(F)cc2F)on1 | > 30 µM (inactive)
51 | CC(/C=N/NC(=O)c1nnn(-c2nonc2N)c1C(C)C)=C\c1ccco1 | > 30 µM (inactive)
52 | CCOC(=O)c1c(NC(=O)CN2C(=O)NC3(CCCCC3C)C2=O)sc(C(=O)N(C)C)c1C (centres undefined) | > 30 µM (inactive)
53 | O=C(CSCc1ccc([N+](=O)[O-])cc1)NN=C1CCCCCC1 | > 30 µM (inactive)
54 | COc1ccc(-n2c(Cc3cccn3C)nnc2SCC(=O)Nc2ccc(F)cc2)cc1 | > 30 µM (inactive)
